# Source: ChEMBL document CHEMBL1143695, “Synthesis and biological studies of novel 2-aminoalkylethers as potential antiarrhythmic agents for the conversion of atrial fibrillation” (J Med Chem, 2007)
# Active and inactive are the calls of the source. No cut-off for these calls is given here.
# Columns and labels:
# [1] = (§1) Half life in Wistar rat at 17 mg/kg. iv; format: ADME, organism-based; design: dose 17 mg/kg, route intravenous; conditions: Wistar, in vivo
# [2] = target: Potassium voltage-gated channel subfamily A member 5 (Homo sapiens, UniProt P22460); assay: Inhibition of human potassium channel Kv1.5 by patch-clamp method
# Chain of Potassium voltage-gated channel subfamily A member 5 (P22460 whole entry): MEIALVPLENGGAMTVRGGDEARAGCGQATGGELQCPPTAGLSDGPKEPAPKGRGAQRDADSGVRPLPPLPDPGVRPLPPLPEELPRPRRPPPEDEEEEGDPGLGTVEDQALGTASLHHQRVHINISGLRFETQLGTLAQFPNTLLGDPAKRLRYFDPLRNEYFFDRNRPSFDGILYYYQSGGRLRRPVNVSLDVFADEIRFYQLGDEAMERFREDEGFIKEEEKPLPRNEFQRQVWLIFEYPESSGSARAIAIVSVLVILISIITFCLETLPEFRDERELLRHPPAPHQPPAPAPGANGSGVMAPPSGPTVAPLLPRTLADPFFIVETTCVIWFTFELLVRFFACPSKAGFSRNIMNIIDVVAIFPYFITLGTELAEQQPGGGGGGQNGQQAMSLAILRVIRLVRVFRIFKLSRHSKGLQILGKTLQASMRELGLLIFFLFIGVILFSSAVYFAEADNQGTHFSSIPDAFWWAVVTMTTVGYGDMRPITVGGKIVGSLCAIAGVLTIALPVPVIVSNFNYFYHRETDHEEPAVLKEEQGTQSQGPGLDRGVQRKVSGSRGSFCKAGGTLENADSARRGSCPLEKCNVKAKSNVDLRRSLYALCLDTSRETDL
# [3] = target: Sodium channel protein type 5 subunit alpha (Homo sapiens, UniProt Q14524)
# Chain of Sodium channel protein type 5 subunit alpha (Q14524 whole entry): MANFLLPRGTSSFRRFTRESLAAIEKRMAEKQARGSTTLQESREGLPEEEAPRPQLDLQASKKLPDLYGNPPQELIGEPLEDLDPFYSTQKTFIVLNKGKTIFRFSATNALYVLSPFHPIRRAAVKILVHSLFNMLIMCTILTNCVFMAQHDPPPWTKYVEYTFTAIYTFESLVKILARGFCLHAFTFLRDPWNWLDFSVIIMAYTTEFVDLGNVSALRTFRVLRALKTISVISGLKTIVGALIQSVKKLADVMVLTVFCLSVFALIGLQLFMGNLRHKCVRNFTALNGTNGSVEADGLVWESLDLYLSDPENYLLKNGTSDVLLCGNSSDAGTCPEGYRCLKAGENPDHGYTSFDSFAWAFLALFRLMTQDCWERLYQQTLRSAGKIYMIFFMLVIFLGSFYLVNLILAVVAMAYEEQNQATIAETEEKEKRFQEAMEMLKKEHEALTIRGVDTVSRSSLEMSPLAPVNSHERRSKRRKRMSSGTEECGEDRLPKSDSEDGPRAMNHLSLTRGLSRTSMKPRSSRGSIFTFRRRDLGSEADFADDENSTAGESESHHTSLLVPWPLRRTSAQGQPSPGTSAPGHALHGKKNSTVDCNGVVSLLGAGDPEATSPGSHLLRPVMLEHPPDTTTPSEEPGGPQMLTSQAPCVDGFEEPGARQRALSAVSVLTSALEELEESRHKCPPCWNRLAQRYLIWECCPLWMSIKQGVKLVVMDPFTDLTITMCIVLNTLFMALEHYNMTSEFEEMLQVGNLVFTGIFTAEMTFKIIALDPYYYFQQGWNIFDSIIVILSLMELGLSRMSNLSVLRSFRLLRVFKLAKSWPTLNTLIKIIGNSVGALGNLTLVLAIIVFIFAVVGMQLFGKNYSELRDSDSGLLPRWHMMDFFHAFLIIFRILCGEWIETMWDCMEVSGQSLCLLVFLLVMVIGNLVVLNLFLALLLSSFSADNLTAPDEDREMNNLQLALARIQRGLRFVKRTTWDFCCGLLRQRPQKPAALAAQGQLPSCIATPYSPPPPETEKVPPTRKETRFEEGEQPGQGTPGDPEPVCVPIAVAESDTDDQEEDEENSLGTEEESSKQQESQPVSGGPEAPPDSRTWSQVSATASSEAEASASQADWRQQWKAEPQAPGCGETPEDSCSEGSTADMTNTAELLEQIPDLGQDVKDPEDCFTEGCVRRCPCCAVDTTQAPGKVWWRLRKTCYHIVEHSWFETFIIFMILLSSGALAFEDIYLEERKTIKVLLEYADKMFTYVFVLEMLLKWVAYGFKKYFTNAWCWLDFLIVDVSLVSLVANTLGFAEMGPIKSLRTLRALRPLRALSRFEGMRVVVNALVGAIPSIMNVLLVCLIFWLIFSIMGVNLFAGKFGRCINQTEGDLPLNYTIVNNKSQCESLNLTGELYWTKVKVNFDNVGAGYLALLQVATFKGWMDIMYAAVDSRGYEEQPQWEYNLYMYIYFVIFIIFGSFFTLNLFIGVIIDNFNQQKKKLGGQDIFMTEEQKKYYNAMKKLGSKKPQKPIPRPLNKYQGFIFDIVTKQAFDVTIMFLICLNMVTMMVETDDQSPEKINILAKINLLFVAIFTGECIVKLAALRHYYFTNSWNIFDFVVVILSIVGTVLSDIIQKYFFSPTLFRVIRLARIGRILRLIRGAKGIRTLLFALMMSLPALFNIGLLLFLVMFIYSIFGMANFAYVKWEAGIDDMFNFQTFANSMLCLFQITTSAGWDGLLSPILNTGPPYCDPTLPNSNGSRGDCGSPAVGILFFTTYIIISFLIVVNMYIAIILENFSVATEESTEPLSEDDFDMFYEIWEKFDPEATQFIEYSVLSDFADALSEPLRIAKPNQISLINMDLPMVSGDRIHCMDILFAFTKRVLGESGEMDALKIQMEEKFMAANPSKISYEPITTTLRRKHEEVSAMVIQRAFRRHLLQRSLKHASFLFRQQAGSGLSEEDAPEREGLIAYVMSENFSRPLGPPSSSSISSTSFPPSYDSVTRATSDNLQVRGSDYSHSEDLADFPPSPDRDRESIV
# Description: Inhibition of human heart sodium channel Nav1.5 by patch-clamp method
# Rattus norvegicus [4] = assay: CNS toxicity in iv dosed Sprague-Dawley rat assessed as cumulative convulsion dose; format: organism-based; conditions: in vivo
# [5] = target: T1, A-type voltage-gated potassium channel KCND2 (Rattus norvegicus, UniProt Q63881); assay: Inhibition of rat potassium channel Kv4.2 by patch-clamp method
# T1 sequence (Q63881 whole entry): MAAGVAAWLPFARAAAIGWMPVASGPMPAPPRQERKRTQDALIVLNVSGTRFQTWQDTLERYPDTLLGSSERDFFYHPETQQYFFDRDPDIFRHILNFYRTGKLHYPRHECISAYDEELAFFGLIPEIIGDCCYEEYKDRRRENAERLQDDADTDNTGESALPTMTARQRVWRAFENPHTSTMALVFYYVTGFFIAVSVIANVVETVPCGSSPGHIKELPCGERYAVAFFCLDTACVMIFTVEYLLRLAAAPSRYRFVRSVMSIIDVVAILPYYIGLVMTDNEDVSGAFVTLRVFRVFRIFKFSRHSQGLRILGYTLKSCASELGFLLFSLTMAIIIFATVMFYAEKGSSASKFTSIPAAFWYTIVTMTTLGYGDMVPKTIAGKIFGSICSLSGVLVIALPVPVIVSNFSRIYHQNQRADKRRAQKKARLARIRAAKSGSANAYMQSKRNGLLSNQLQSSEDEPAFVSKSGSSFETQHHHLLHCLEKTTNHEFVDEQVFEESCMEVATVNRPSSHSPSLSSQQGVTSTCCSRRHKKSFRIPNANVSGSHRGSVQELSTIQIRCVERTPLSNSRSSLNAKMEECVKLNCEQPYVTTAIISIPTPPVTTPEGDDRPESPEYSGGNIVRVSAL
# [6] = Clearance in Wistar rat at 17 mg/kg. iv; format: ADME, organism-based; design: dose 17 mg/kg, route intravenous; conditions: in vivo
# Rattus norvegicus [7] = assay: Antiarrhythmic activity in intravenously dosed Sprague-Dawley rat with ischemia-induced arrhythmia; format: functional, Heart
# [8] = (§2) Volume of distribution at steady state in Wistar rat at 17 mg/kg. iv; format: ADME, organism-based; design: dose 17 mg/kg, route intravenous; conditions: Wistar, in vivo, read-out: Vdss
# [9] = (§3) Oral bioavailability in Wistar rat at 34 mg/kg. […]; format: ADME, organism-based; conditions: Wistar, in vivo, oral
# [10] = target: T2, Potassium voltage-gated channel subfamily B member 1 (Rattus norvegicus, UniProt P15387); assay: Inhibition of rat potassium channel Kv2.1 by patch-clamp method
# T2 sequence (P15387 whole entry): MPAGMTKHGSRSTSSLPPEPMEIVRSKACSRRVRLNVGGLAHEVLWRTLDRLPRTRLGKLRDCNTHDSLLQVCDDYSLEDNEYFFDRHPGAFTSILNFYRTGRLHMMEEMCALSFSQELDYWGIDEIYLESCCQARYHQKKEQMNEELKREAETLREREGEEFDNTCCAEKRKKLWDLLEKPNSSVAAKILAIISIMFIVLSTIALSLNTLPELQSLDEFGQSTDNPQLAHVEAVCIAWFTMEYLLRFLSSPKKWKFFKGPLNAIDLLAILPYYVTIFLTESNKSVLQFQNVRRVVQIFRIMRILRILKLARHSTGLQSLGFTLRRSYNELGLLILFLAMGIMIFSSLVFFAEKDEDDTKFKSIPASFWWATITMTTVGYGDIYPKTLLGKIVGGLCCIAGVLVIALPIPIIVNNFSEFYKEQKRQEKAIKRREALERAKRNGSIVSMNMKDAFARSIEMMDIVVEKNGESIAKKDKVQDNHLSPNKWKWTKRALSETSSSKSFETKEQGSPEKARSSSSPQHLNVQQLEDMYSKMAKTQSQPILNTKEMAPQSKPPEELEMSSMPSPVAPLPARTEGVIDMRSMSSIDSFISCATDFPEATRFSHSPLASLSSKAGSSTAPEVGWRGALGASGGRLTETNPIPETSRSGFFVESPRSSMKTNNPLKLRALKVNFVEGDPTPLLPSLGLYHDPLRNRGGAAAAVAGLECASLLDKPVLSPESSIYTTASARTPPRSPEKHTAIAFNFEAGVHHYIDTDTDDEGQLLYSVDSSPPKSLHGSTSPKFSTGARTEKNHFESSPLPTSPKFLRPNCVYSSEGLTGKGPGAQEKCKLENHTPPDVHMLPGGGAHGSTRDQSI
# Rattus norvegicus [11] = assay: as §1; format: ADME, organism-based; design: dose 17 mg/kg, route intravenous; conditions: in vivo
# Rattus norvegicus [12] = assay: as §2; format: ADME, organism-based; design: dose 17 mg/kg, route intravenous; conditions: in vivo
# Rattus norvegicus [13] = assay: as §3; format: ADME, organism-based; conditions: in vivo
# in vivo = conditions: CD1, mouse, iv
# Description: Toxicity in intravenously dosed CD1 mouse
# Rattus norvegicus [14] = assay: Hemodynamic effect in intravenously dosed Sprague-Dawley rat with ischemia-induced arrhythmia assessed as dose producing 10% reduction in systemic blood pressure; format: functional
# [15] = Half life in Wistar rat at 12 mg/kg. iv; format: ADME, organism-based; design: dose 12 mg/kg, route intravenous; conditions: in vivo
# [16] = Volume of distribution at steady state in Wistar rat at 12 mg/kg. iv; format: ADME, organism-based; design: dose 12 mg/kg, route intravenous; conditions: in vivo, read-out: Vdss
# [17] = Clearance in Wistar rat at 12 mg/kg. iv; format: ADME, organism-based; design: dose 12 mg/kg, route intravenous; conditions: in vivo
# Canis familiaris [18] = species: Canis familiaris; assay: Effect on Mongrel dog sterile pericarditis atrial fibrillation model assessed as dose for conversion of atrial fibrillation to normal sinus rhythm; format: functional, Canis lupus familiaris, Cardiac atrium
# Canis familiaris [19] = species: Canis familiaris; assay: Reduction of blood pressure in Mongrel dog vagal atrial fibrillation model; format: functional, organism-based; conditions: Canis lupus familiaris
# [20] = Oral bioavailability in Wistar rat at 24 mg/kg. […]; format: ADME, organism-based; conditions: in vivo
# Canis familiaris [21] = species: Canis familiaris; assay: Reduction of heart rate in Mongrel dog vagal atrial fibrillation model; format: functional, organism-based; conditions: Canis lupus familiaris
# Canis familiaris [22] = species: Canis familiaris; assay: Effect on Mongrel dog sterile pericarditis atrial fibrillation model assessed as conversion of atrial fibrillation to normal sinus rhythm; format: functional, organism-based; conditions: Canis lupus familiaris; Cardiac atrium
# Canis familiaris [23] = species: Canis familiaris; assay: Effect on Mongrel dog vagal atrial fibrillation model assessed as dose for conversion of atrial fibrillation to normal sinus rhythm; format: functional, Canis lupus familiaris, Cardiac atrium
# Canis familiaris [24] = species: Canis familiaris; assay: Effect on Mongrel dog vagal atrial fibrillation model assessed as conversion of atrial fibrillation to normal sinus rhythm; format: functional, organism-based; conditions: Canis lupus familiaris; Cardiac atrium
SMILES,half-life [1] [h],IC50 [2] [µM],IC50 [3] [µM],Activity (Rattus norvegicus [4]) [µmol/kg],IC50 [5] [µM],clearance [6] [mL/min/kg],ED50 (Rattus norvegicus [7]) [µmol/kg/min],Vd [8] [L/kg],IC50 [10] [µM],F (Rattus norvegicus [13]) [%],LD50 (in vivo) [µmol/kg],half-life [15] [h],Vd [16] [L/kg],clearance [17] [mL/min/kg],Activity (Canis familiaris [18]) [µmol/kg],Activity (Canis familiaris [19]),bioavailability [20] [%],Activity (Canis familiaris [21]),Activity (Canis familiaris [22]),further results
O=C1CCN([C@H]2CCCC[C@@H]2OCCc2cccc3ccccc23)C1,1,7.7,13,150,9,30.2,1.9,2.6,8,,,,,,,,,,,bioavailability [9]: 32%
O=C1CCN([C@@H]2CCCC[C@H]2OCCc2cccc3ccccc23)C1 (stereo in doubt; 40),,5.9,11,193,11,,1.2,,6,6,,,,,,,,,,t1/2 (Rattus norvegicus [11]): 3.8 h; Vdss (Rattus norvegicus [12]): 8.3 L/kg
O=C1CCN([C@@H]2CCCC[C@H]2OCCc2cccc3ccccc23)C1 (stereo in doubt; 26),6.3,4.3,25,225,8.9,38.7,0.4,4.5,2.8,58,227,,,,,,,,,
CCCCc1oc2ccccc2c1C(=O)c1cc(I)c(OCCN(CC)CC)c(I)c1 [AMIODARONE],,,,,,,,,,,,,,,,,,,,Activity (Rattus norvegicus [14]): 4 µmol/kg/min
c1ccc2c(CCO[C@@H]3CCCC[C@H]3N3CCOCC3)cccc2c1,,1.3,4,93,17,,0.8,,3.2,,42,6.5,29,50.1,8,inactive,4,inactive,Active,
Clc1ccc(CCO[C@@H]2CCCC[C@H]2N2CCOCC2)cc1Cl,,3.6,15,118,11,,1.5,,2.4,,228,4.5,19,48.5,10,inactive,7,inactive,Active,Activity (Canis familiaris [23]): 17 µmol/kg; Activity (Canis familiaris [24]): Active
